According to patent publication US5843889A, “Glycopeptide antibiotic derivatives” (Eli Lilly and Company, priority 1997, dated 1998):
In brackets after ≈: the same amount, converted by molar mass.

Tests used:
[1] = system: Entercoccus faecalis 2041; assay: MIC, standard broth micro-dilution assay; type: cell-based
Description: (§1) The formula I compounds have in vitro and in vivo activity against Gram-positive pathogenic bacteria. The MIC's were determined using a standard broth micro-dilution assay.

[2] = system: Entercoccus gallinarum 245; assay: MIC, standard broth micro-dilution assay; type: cell-based
Description: as §1

Row | MIC [1] | MIC [2] | Compound
1 | ≤ 0.06 µg/mL | 2 µg/mL (≈ 1.09 µM) | CNC(CC(C)C)C(=O)NC1C(=O)NC(CC(N)=O)C(=O)NC2C(=O)NC3C(=O)NC(C(=O)NC(C(=O)O)c4cc(O)cc(O)c4-c4cc3ccc4O)C(OC3CC(C)(N)C(O)C(C)O3)c3ccc(c(Cl)c3)Oc3cc2cc(c3OC2OC(CO)C(O)C(O)C2OC2CC(C)(NCc3ccc(OCc4ccc([N+](=O)[O-])cc4)cc3)C(O)C(C)O2)Oc2ccc(cc2Cl)C1O (stereo not drawn) [Compound 131, 4-[4-nitrobenzyloxy]benzyl]
2 | ≤ 0.06 µg/mL | 0.5 µg/mL (≈ 0.28 µM) | CNC(CC(C)C)C(=O)NC1C(=O)NC(CC(N)=O)C(=O)NC2C(=O)NC3C(=O)NC(C(=O)NC(C(=O)O)c4cc(O)cc(O)c4-c4cc3ccc4O)C(OC3CC(C)(N)C(O)C(C)O3)c3ccc(c(Cl)c3)Oc3cc2cc(c3OC2OC(CO)C(O)C(O)C2OC2CC(C)(NCc3ccc4c(c3)CCc3ccccc3-4)C(O)C(C)O2)Oc2ccc(cc2Cl)C1O (stereo not drawn) [Compound 220]
3 | ≤ 0.06 µg/mL | 2 µg/mL (≈ 1.12 µM) | CNC(CC(C)C)C(=O)NC1C(=O)NC(CC(N)=O)C(=O)NC2C(=O)NC3C(=O)NC(C(=O)NC(C(=O)O)c4cc(O)cc(O)c4-c4cc3ccc4O)C(OC3CC(C)(N)C(O)C(C)O3)c3ccc(c(Cl)c3)Oc3cc2cc(c3OC2OC(CO)C(O)C(O)C2OC2CC(C)(NCc3ccc(CCc4ccccc4)cc3)C(O)C(C)O2)Oc2ccc(cc2Cl)C1O (stereo not drawn) [Compound 100, 4-[(2-phenyl)ethyl]benzyl]
4 | ≤ 0.06 µg/mL | 8 µg/mL (≈ 4.63 µM) | CNC(CC(C)C)C(=O)NC1C(=O)NC(CC(N)=O)C(=O)NC2C(=O)NC3C(=O)NC(C(=O)NC(C(=O)O)c4cc(O)cc(O)c4-c4cc3ccc4O)C(OC3CC(C)(N)C(O)C(C)O3)c3ccc(c(Cl)c3)Oc3cc2cc(c3OC2OC(CO)C(O)C(O)C2OC2CC(C)(NCC3=CCC(C(C)C)CC3)C(O)C(C)O2)Oc2ccc(cc2Cl)C1O (stereo not drawn) [Compound 171, 1-cyclohexenyl-4-isopropylmethyl]
5 | ≤ 0.06 µg/mL | 2 µg/mL (≈ 1.12 µM) | CNC(CC(C)C)C(=O)NC1C(=O)NC(CC(N)=O)C(=O)NC2C(=O)NC3C(=O)NC(C(=O)NC(C(=O)O)c4cc(O)cc(O)c4-c4cc3ccc4O)C(OC3CC(C)(N)C(O)C(C)O3)c3ccc(c(Cl)c3)Oc3cc2cc(c3OC2OC(CO)C(O)C(O)C2OC2CC(C)(NCc3ccc(-c4ccc(C)c(C)c4)cc3)C(O)C(C)O2)Oc2ccc(cc2Cl)C1O (stereo not drawn) [Compound 221, 4-[3,4-dimethylphenyl]benzyl]
6 | ≤ 0.06 µg/mL | 1 µg/mL (≈ 0.559 µM) | CN[C@H](CC(C)C)C(=O)N[C@H]1C(=O)N[C@@H](CC(N)=O)C(=O)N[C@H]2C(=O)N[C@H]3C(=O)N[C@H](C(=O)N[C@H](C(=O)O)c4cc(O)cc(O)c4-c4cc3ccc4O)[C@H](O[C@H]3C[C@](C)(N)[C@@H](O)[C@H](C)O3)c3ccc(c(Cl)c3)Oc3cc2cc(c3O[C@@H]2O[C@H](CO)[C@@H](O)[C@H](O)[C@H]2O[C@H]2C[C@](C)(NCc3ccc(Oc4ccc(C)cc4)cc3)[C@@H](O)[C@H](C)O2)Oc2ccc(cc2Cl)[C@H]1O [Compound 95, 4-[4-methylphenoxy]benzyl]
7 | ≤ 0.06 µg/mL | 1 µg/mL (≈ 0.549 µM) | CN[C@H](CC(C)C)C(=O)N[C@H]1C(=O)N[C@@H](CC(N)=O)C(=O)N[C@H]2C(=O)N[C@H]3C(=O)N[C@H](C(=O)N[C@H](C(=O)O)c4cc(O)cc(O)c4-c4cc3ccc4O)[C@H](O[C@H]3C[C@](C)(N)[C@@H](O)[C@H](C)O3)c3ccc(c(Cl)c3)Oc3cc2cc(c3O[C@@H]2O[C@H](CO)[C@@H](O)[C@H](O)[C@H]2O[C@H]2C[C@](C)(NCc3ccc(OCc4ccc(Cl)cc4)cc3)[C@@H](O)[C@H](C)O2)Oc2ccc(cc2Cl)[C@H]1O [Compound 93, 4-[4-chlorobenzyloxy]benzyl]
8 | ≤ 0.06 µg/mL | 2 µg/mL (≈ 1.13 µM) | CNC(CC(C)C)C(=O)NC1C(=O)NC(CC(N)=O)C(=O)NC2C(=O)NC3C(=O)NC(C(=O)NC(C(=O)O)c4cc(O)cc(O)c4-c4cc3ccc4O)C(OC3CC(C)(N)C(O)C(C)O3)c3ccc(c(Cl)c3)Oc3cc2cc(c3OC2OC(CO)C(O)C(O)C2OC2CC(C)(NCc3cc(-c4ccccc4)ccc3O)C(O)C(C)O2)Oc2ccc(cc2Cl)C1O (stereo not drawn) [Compound 85, 2-hydroxy-5-phenylbenzyl]
9 | ≤ 0.06 µg/mL | 1 µg/mL (≈ 0.554 µM) | CNC(CC(C)C)C(=O)NC1C(=O)NC(CC(N)=O)C(=O)NC2C(=O)NC3C(=O)NC(C(=O)NC(C(=O)O)c4cc(O)cc(O)c4-c4cc3ccc4O)C(OC3CC(C)(N)C(O)C(C)O3)c3ccc(c(Cl)c3)Oc3cc2cc(c3OC2OC(CO)C(O)C(O)C2OC2CC(C)(NCc3ccc(Oc4ccc(OC)cc4)cc3)C(O)C(C)O2)Oc2ccc(cc2Cl)C1O (stereo not drawn) [Compound 98, 4-[4-methoxyphenoxy]benzyl]
10 | ≤ 0.06 µg/mL | 2 µg/mL (≈ 1.17 µM) | CNC(CC(C)C)C(=O)NC1C(=O)NC(CC(N)=O)C(=O)NC2C(=O)NC3C(=O)NC(C(=O)NC(C(=O)O)c4cc(O)cc(O)c4-c4cc3ccc4O)C(OC3CC(C)(N)C(O)C(C)O3)c3ccc(c(Cl)c3)Oc3cc2cc(c3OC2OC(CO)C(O)C(O)C2OC2CC(C)(NCCCC3CCCC3)C(O)C(C)O2)Oc2ccc(cc2Cl)C1O (stereo not drawn) [Compound 208, 3-[cyclopentyl]propyl]
11 | ≤ 0.06 µg/mL | 1 µg/mL (≈ 0.553 µM) | CNC(CC(C)C)C(=O)NC1C(=O)NC(CC(N)=O)C(=O)NC2C(=O)NC3C(=O)NC(C(=O)NC(C(=O)O)c4cc(O)cc(O)c4-c4cc3ccc4O)C(OC3CC(C)(N)C(O)C(C)O3)c3ccc(c(Cl)c3)Oc3cc2cc(c3OC2OC(CO)C(O)C(O)C2OC2CC(C)(NCC3CCC(COCc4ccccc4)CC3)C(O)C(C)O2)Oc2ccc(cc2Cl)C1O (stereo not drawn) [Compound 239]
12 | ≤ 0.06 µg/mL | 1 µg/mL (≈ 0.571 µM) | CNC(CC(C)C)C(=O)NC1C(=O)NC(CC(N)=O)C(=O)NC2C(=O)NC3C(=O)NC(C(=O)NC(C(=O)O)c4cc(O)cc(O)c4-c4cc3ccc4O)C(OC3CC(C)(N)C(O)C(C)O3)c3ccc(c(Cl)c3)Oc3cc2cc(c3OC2OC(CO)C(O)C(O)C2OC2CC(C)(NCCCCCCc3ccccc3)C(O)C(C)O2)Oc2ccc(cc2Cl)C1O (stereo not drawn) [Compound 196, 6-phenylhexyl]
13 | ≤ 0.06 µg/mL | 2 µg/mL (≈ 1.08 µM) | CN[C@H](CC(C)C)C(=O)N[C@H]1C(=O)N[C@@H](CC(N)=O)C(=O)N[C@H]2C(=O)N[C@H]3C(=O)N[C@H](C(=O)N[C@H](C(=O)O)c4cc(O)cc(O)c4-c4cc3ccc4O)[C@H](O[C@H]3C[C@](C)(N)[C@@H](O)[C@H](C)O3)c3ccc(c(Cl)c3)Oc3cc2cc(c3O[C@@H]2O[C@H](CO)[C@@H](O)[C@H](O)[C@H]2O[C@H]2C[C@](C)(NCc3ccc(Oc4ccc(Cl)cc4)c([N+](=O)[O-])c3)[C@@H](O)[C@H](C)O2)Oc2ccc(cc2Cl)[C@H]1O [Compound 94, 4-[4-chlorophenoxy]-3-nitrobenzyl]
14 | ≤ 0.06 µg/mL | 1 µg/mL (≈ 0.566 µM) | C=CCCCOc1ccc(CNC2(C)CC(OC3C(Oc4c5cc6cc4Oc4ccc(cc4Cl)C(OC4CC(C)(N)C(O)C(C)O4)C4NC(=O)C(NC(=O)C6NC(=O)C(CC(N)=O)NC(=O)C(NC(=O)C(CC(C)C)NC)C(O)c6ccc(c(Cl)c6)O5)c5ccc(O)c(c5)-c5c(O)cc(O)cc5C(C(=O)O)NC4=O)OC(CO)C(O)C3O)OC(C)C2O)cc1 (stereo not drawn) [Compound 226, 4-[4-pentenyloxy]benzyl]
15 | ≤ 0.06 µg/mL | 8 µg/mL (≈ 4.55 µM) | CNC(CC(C)C)C(=O)NC1C(=O)NC(CC(N)=O)C(=O)NC2C(=O)NC3C(=O)NC(C(=O)NC(C(=O)O)c4cc(O)cc(O)c4-c4cc3ccc4O)C(OC3CC(C)(N)C(O)C(C)O3)c3ccc(c(Cl)c3)Oc3cc2cc(c3OC2OC(CO)C(O)C(O)C2OC2CC(C)(NCc3cncc(-c4ccccc4)c3)C(O)C(C)O2)Oc2ccc(cc2Cl)C1O (stereo not drawn) [Compound 101, 3-[5-phenyl]pyridinylmethyl]
